The values that follow come from patent publication US20250248392A1, “LETHAL BAIT FOR PEST ANT CONTROL” (priority 2024, published 2025).

Holding throughout (format): in vivo
For experiment [1], the system named is Myrmica rubra fire ants. Kind of experiment: Exp. 17: choice between lethal and non-lethal liquid bait, survival of laboratory colonies. The conditions noted are these: boric acid as lethal agent in baits; conclusion from Exps. 17-19 (M. rubra, F. oreas, C. modoc).
In experiment [2] the test system is Myrmica rubra field colonies. As to the kind of experiment: Exp. 14: seasonal consumption of liquid food baits by field colonies. The text has this: (§1) Tubes were spaced around the entrance of C. modoc and M. rubra nests, with tube positions randomly assigned in each replicate.
(§2) For the C. modoc experiment (Exp. 13), Eppendorf tubes were affixed 5 cm apart to trees or logs housing a colony as shown, for example, in FIG. 6b. For the M. rubra experiment (Exp. 14), tubes were placed 5 cm apart around the entrance of subterranean nests. Evaporation control tubes were placed in Tupperware containers (15 cm×9 cm×10 cm) with a mesh-covered hole in the lid, and containers were set near ant nests. Replicates with M. rubra colonies (n=10; repeated on 7 dates) were run for 4 hours, and replicates with C. modoc colonies (n=13; repeated on 6 dates) were run for 24 hours. After replicates were terminated, tubes were capped, transported to the laboratory in a cooler, and weighed. All field studies were run on warm and sunny days with observable ant activity.
(§3) Colonies of C. modoc were located along the Mamquam forest service road (near Squamish, BC, Canada) and colonies of M. rubra were located at Inter River Park (District of North Vancouver, BC, Canada). […] Throughout the summer season, nutrient consumption by colonies was measured in circa 3-week intervals on six dates for C. modoc colonies from Jun. 18, 2021 to Sep. 7, 2021, and on seven dates for M. rubra colonies from May 21, 2021 to Sep. 13, 2021.

The test system of experiment [3] is Lasius niger black garden ants. Kind of experiment: Exp. 15: consumption of liquid food baits by field colonies. The conditions noted are these: Exp. 15: EAAs 5.55%, sucrose 5.55%, EAAs 1.0% + sucrose 4.55% w/v, water. From the text:
In Experiments 15 and 16, the bait of EAAs and sucrose was effective for diverse ant taxa including black garden ants and thatching ants, as shown in FIG. 7. In Experiment 15 (n=10), colonies of Lasius niger black garden ants were located at the base of trees on the Burnaby campus of Simon Fraser University, and tubes were affixed next to each other on tree trunks alongside the ants' foraging trails. In Experiment 16 (n=10), colonies of Formica aserva thatching ants were located along the Mamquam forest service road (see above), and tubes were placed on top of tree stumps that contained an ant colony. For both experiments, evaporation control tubes were placed in Tupperware containers (15 cm×9 cm×10 cm) with a mesh-covered hole in the lid, and containers were set near ant colonies. Each colony was offered four Eppendorf tubes that contained: (1) EAAs (5.55% w/v); (2) sucrose (5.55% w/v), (3) EAAs (1.0% w/v)+sucrose (4.55% w/v); and (4) plain water (control).

Experiment [4] relates to Camponotus modoc field colonies. Kind of experiment: Exp. 13: seasonal consumption of liquid food baits by field colonies. The conditions noted are these: Exp. 13, Jun. 18 to Sep. 7, 2021.
Description: as §1, §2, §3

Experiment [5] concerns Myrmica rubra fire ants. As to the kind of experiment: Laboratory consumption of liquid nutrient baits (Exps. 2, 4, 6, 8, 10, 12). How it is done: (§4) Liquid nutrient solutions for experiments (see Table 1 for nutrient concentrations) were prepared by weighing dry ingredients (TR 204 scale; Denver Instrument Company, CO, USA), and then mixing them in distilled water. Aliquots (1 mL) of these solutions were pipetted into 1.5-mL Eppendorf tubes (Thermo Fisher Scientific, Waltham, MA 02451, U.S.A.) which were stored in a freezer (−4° C.) until needed.
(§5) Prior to experiments, Eppendorf tubes were removed from the freezer to thaw, and then vortexed to dissolve all solutes. Then, a 1-cm long piece of cotton dental wick (Richmond Dental & Medical, Charlotte, NC 28205, USA) was inserted into each tube, thus allowing ants to ingest the liquid without spillage. Also prior to bioassays, colonies were deprived of sugar water and food for 24 hours and 4 hours, respectively (the maximum time ants could endure without these foods before they attempted to chew their way out of containers). […]
(§6) Colonies of C. modoc (Exp. 1) and M. rubra (Exp. 2) were offered three choices: (1) 11 EAAs+10 non-EAAs (1.05% total w/v) in water; (2) 10 non-EAAs (0.5% w/v) in water; and (3) a water control. […] Data were analyzed using generalized linear models (GLM) and generalized linear mixed models (GLMM). For all models, the significance (p 0.05) of each predictor was assessed using a likelihood ratio test (LRT), and Tukey adjusted pairwise comparisons between means. […]

Experiment [6] concerns Camponotus modoc carpenter ants. Kind of experiment: Laboratory consumption of liquid nutrient baits (Exps. 1, 3, 5, 7, 9, 11). The conditions noted are these: Exps. 5 and 7: single nutrients and ternary blend, unadjusted and adjusted concentrations. How it is done:
as §4, §5, §6

Consider `OB(O)O` [boric acid], for which, in the experiment with Myrmica rubra fire ants [1], the “aversion to bait consumption” value is recorded as “not aversive to bait consumption”.

On to `OC[C@H]1O[C@@](CO)(O[C@H]2O[C@H](CO)[C@@H](O)[C@H](O)[C@H]2O)[C@@H](O)[C@@H]1O` [sucrose, D-sucrose], for which the “change of consumption over the season” value is recorded as “declined over time” in experiment [2] (Exp. 14, May 21 to Sep. 13, 2021) and “decreased over time” in experiment [4]. In addition, the “consumption by field colonies” value in experiment [2] (Exp. 14: EAA 5.55%, sucrose 5.55%, EAA 1.0% + sucrose 4.55% w/v, water, seven dates, 4 hours) was “generally consumed more sucrose”; in experiment [3], “equally consumed”. Also, the consumption by colonies result in the experiment on Myrmica rubra fire ants [5] (Exp. 6: unadjusted concentrations (urea 2.5%, EAAs 0.55%, sucrose 2.5% w/v)) is “preferentially consumed”; in the experiment on Myrmica rubra fire ants [5] (Exp. 8: adjusted concentrations (5.55% w/v)), “preferentially consumed”.

`NC(N)=O` [urea]: in experiment [6], the consumption by colonies result is “preferentially consumed”.
